# Earlier results as cited in patent US20170333389A1, “Method of Ameliorating Clotting Pathologies and Related Materials and Methods” (The Ohio State University, priority 2012, published 2017).
# Tests used:
# platelet aggregation = conditions: low-dose aspirin (81 mg) treated healthy volunteers
# [1] = patients who have had a TIA or stroke
smiles,measurement,setting,value
CC(=O)Oc1ccccc1C(=O)O [aspirin],decrease of relative risk of non-fatal ischemic stroke,recurrent stroke; [1],19%
same,"decrease of relative risk of recurrent stroke, myocardial infarction, and vascular death",recurrent stroke; [1],13%
same,platelet function recovery after withdrawal,platelet aggregation,48 to 72 h
CC(C)c1c(C(=O)Nc2ccccc2)c(-c2ccccc2)c(-c2ccc(F)cc2)n1CC[C@@H](O)C[C@@H](O)CC(=O)O [atorvastatin],decrease of risk of recurrent stroke,"recurrent stroke; patients with stroke, high dose, over 5 years",about 2%
CC(=O)CC(c1ccccc1)c1c(O)c2ccccc2oc1=O (centres unmarked) [warfarin],decrease of relative stroke risk,"recurrent stroke; patients with stroke due to atrial fibrillation, dose-adjusted",62%
